According to ChEMBL document CHEMBL1201862, “PubChem BioAssay data set” (2004):
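Growth conditions: 96-well plates. Treatment: test compound, 48 hours, 5 concentrations. Analysis: linear interpolation between bracketing concentrations; unreached endpoints set to highest concentration. GI50: concentration for 50% inhibition of growth.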 Active and inactive are the calls of the source. No stated cut-off is given here; in the data, active = GI50 up to about 1.1 µM and inactive = higher.

Key:
Assay in all cases: NCI-60 cell line screen, 48 h
[1] = test system: SK-MEL-5
[2] = test system: KM-20L2
[3] = test system: SW-620
[4] = test system: NCI-H23
[5] = test system: M14
[6] = test system: EKVX
[7] = test system: SNB-75
[8] = test system: SF-295
[9] = test system: UACC-257
[10] = test system: HL-60
[11] = test system: XF498
[12] = test system: OVCAR-4
[13] = test system: MOLT-4
[14] = test system: M19-MEL
[15] = test system: IGROV-1
[16] = test system: SK-MEL-2
[17] = test system: HOP-62
[18] = test system: HCC 2998
[19] = test system: OVCAR-5
[20] = test system: DMS-273
[21] = test system: HT-29
[22] = test system: OVCAR-8
[23] = test system: CCRF-CEM
[24] = test system: K562
[25] = test system: RPMI-8226
[26] = test system: DMS-114
[27] = test system: NCI-H460
[28] = test system: HCT-15
[29] = test system: Malme-3M
[30] = test system: OVCAR-3
[31] = test system: HCT-116
[32] = test system: UO-31
[33] = test system: KM12
[34] = test system: A549
[35] = test system: NCI-H226
[36] = test system: RXF 631
[37] = test system: RXF 393
[38] = test system: U-251
[39] = test system: CAKI-1
[40] = test system: SF-539
[41] = test system: A498
[42] = test system: SK-MEL-28
[43] = test system: ACHN
[44] = test system: TK-10
[45] = test system: SK-OV-3
[46] = test system: UACC-62
[47] = test system: 786-0
[48] = test system: DLD-1
[49] = test system: SNB-78
[50] = test system: NCI-H522
[51] = test system: LXFL 529
[52] = test system: MDA-N
[53] = test system: COLO 205
[54] = test system: LOX IMVI
[55] = test system: HOP-92
[56] = test system: SR
[57] = test system: SNB-19
[58] = test system: SN12C
[59] = test system: T47D
[60] = test system: Hs-578T
[61] = test system: MDA-MB-435
[62] = test system: MDA-MB-231
[63] = test system: DU-145
[64] = test system: SF-268
[65] = test system: PC-3
[66] = test system: BT-549
[67] = test system: MCF7
[68] = test system: NCI/ADR-RES

Cn1cc(C(=O)/C(Cl)=C(\Cl)C(=O)O)c2ccccc21
GI50 [1]: > 100 µM (inactive) | GI50 [2]: > 100 µM (inactive) | GI50 [3]: > 100 µM (inactive) | GI50 [4]: > 100 µM (inactive) | GI50 [5]: > 100 µM (inactive) | GI50 [6]: > 100 µM (inactive) | GI50 [7]: > 100 µM (inactive) | GI50 [8]: > 100 µM (inactive) | GI50 [9]: > 100 µM (inactive) | GI50 [10]: > 100 µM (inactive) | GI50 [11]: > 100 µM (inactive) | GI50 [12]: > 100 µM (inactive) | GI50 [13]: > 100 µM (inactive) | GI50 [14]: > 100 µM (inactive) | GI50 [15]: > 100 µM (inactive) | GI50 [16]: > 100 µM (inactive) | GI50 [17]: > 100 µM (inactive) | GI50 [18]: > 100 µM (inactive) | GI50 [19]: > 100 µM (inactive) | GI50 [20]: > 100 µM (inactive) | GI50 [21]: > 100 µM (inactive) | GI50 [22]: > 100 µM (inactive) | GI50 [23]: > 100 µM (inactive) | GI50 [24]: > 100 µM (inactive) | GI50 [25]: > 100 µM (inactive) | GI50 [26]: > 100 µM (inactive) | GI50 [27]: > 100 µM (inactive) | GI50 [28]: > 100 µM | GI50 [29]: > 100 µM (inactive) | GI50 [30]: > 100 µM (inactive) | GI50 [31]: > 100 µM (inactive) | GI50 [32]: > 100 µM (inactive) | GI50 [33]: > 100 µM (inactive) | GI50 [34]: > 100 µM (inactive) | GI50 [35]: > 100 µM (inactive) | GI50 [36]: > 100 µM (inactive) | GI50 [37]: > 100 µM (inactive) | GI50 [38]: > 100 µM (inactive) | GI50 [39]: > 100 µM (inactive) | GI50 [40]: > 100 µM (inactive) | GI50 [41]: > 100 µM (inactive) | GI50 [42]: > 100 µM (inactive) | GI50 [43]: > 100 µM (inactive) | GI50 [44]: > 100 µM (inactive) | GI50 [45]: > 100 µM (inactive) | GI50 [46]: > 100 µM (inactive) | GI50 [47]: > 100 µM (inactive) | GI50 [48]: > 100 µM (inactive) | GI50 [49]: > 100 µM (inactive)

O=C1c2c(nc3ccccc3c2-c2ccccc2)CN1Nc1ccccn1
GI50 [1]: 74.5 µM (inactive) | GI50 [50]: > 78.3 µM (inactive) | GI50 [3]: > 100 µM (inactive) | GI50 [4]: 86.5 µM (inactive) | GI50 [51]: 51.9 µM (inactive) | GI50 [5]: > 100 µM (inactive) | GI50 [6]: 69 µM (inactive) | GI50 [52]: > 100 µM (inactive) | GI50 [53]: > 100 µM (inactive) | GI50 [7]: 34.7 µM (inactive) | GI50 [8]: 60.1 µM (inactive) | GI50 [9]: > 92 µM (inactive) | GI50 [10]: 97.9 µM (inactive) | GI50 [54]: > 76.9 µM (inactive) | GI50 [11]: > 100 µM (inactive) | GI50 [55]: 38.4 µM (inactive) | GI50 [56]: 58.1 µM (inactive) | GI50 [57]: > 86.5 µM (inactive) | GI50 [12]: > 80.7 µM (inactive) | GI50 [13]: 71.4 µM (inactive) | GI50 [14]: > 100 µM (inactive) | GI50 [15]: 81.8 µM (inactive) | GI50 [16]: > 100 µM (inactive) | GI50 [17]: 72.6 µM (inactive) | GI50 [58]: 53.6 µM (inactive) | GI50 [18]: > 100 µM (inactive) | GI50 [19]: > 100 µM (inactive) | GI50 [20]: > 89.9 µM (inactive) | GI50 [59]: > 68.4 µM (inactive) | GI50 [21]: > 100 µM (inactive) | GI50 [22]: 43.5 µM (inactive) | GI50 [23]: 79.1 µM (inactive) | GI50 [24]: 83.4 µM (inactive) | GI50 [60]: 21.2 µM (inactive) | GI50 [25]: 76.9 µM (inactive) | GI50 [26]: 27.5 µM (inactive) | GI50 [27]: 40.6 µM (inactive) | GI50 [28]: > 75.5 µM | GI50 [29]: 78.3 µM (inactive) | GI50 [30]: 75 µM (inactive) | GI50 [61]: > 100 µM (inactive) | GI50 [31]: 79.8 µM (inactive) | GI50 [32]: 13.8 µM (inactive) | GI50 [62]: > 100 µM (inactive) | GI50 [63]: 67.9 µM (inactive) | GI50 [33]: 76 µM (inactive) | GI50 [34]: 59.4 µM (inactive) | GI50 [35]: 61.1 µM (inactive) | GI50 [36]: 15.8 µM (inactive) | GI50 [37]: 53 µM (inactive) | GI50 [38]: 66.7 µM (inactive) | GI50 [64]: 75.9 µM (inactive) | GI50 [39]: 47.3 µM (inactive) | GI50 [40]: > 75.2 µM (inactive) | GI50 [41]: 5.32 µM (inactive) | GI50 [65]: > 89.7 µM (inactive) | GI50 [42]: > 100 µM (inactive) | GI50 [43]: 43.7 µM (inactive) | GI50 [44]: > 83 µM (inactive) | GI50 [45]: 98.2 µM (inactive) | GI50 [66]: > 79.1 µM (inactive) | GI50 [46]: > 83 µM (inactive) | GI50 [47]: > 74.5 µM (inactive) | GI50 [48]: > 100 µM (inactive) | GI50 [67]: > 70 µM (inactive) | GI50 [68]: 43 µM (inactive) | GI50 [49]: 11.5 µM (inactive)
